Experimental data taken from ChEMBL document CHEMBL2417511, “Probes for narcotic receptor mediated phenomena. 48. C7- and C8-substituted 5-phenylmorphan opioids from diastereoselective alkylation” (Eur J Med Chem, 2013).

Columns and labels:
Format in all cases: cell-based
[1] = biological target: Kappa-type opioid receptor (Homo sapiens, UniProt P41145); test: Displacement of [3H]U69,593 from human kappa opioid receptor expressed in CHO cells after 2 hrs by liquid scintillation counting
[2] = biological target: Delta-type opioid receptor (Homo sapiens, UniProt P41143); test: Displacement of [3H]DADLE from human delta opioid receptor expressed in CHO cells after 2 hrs by liquid scintillation counting
Mu-type opioid receptor = Mu-type opioid receptor (Homo sapiens, UniProt P35372); test: Displacement of [3H]DAMGO from human mu opioid receptor expressed in CHO cells after 2 hrs by liquid scintillation counting
Mu-type opioid receptor, sequence (P35372 whole entry): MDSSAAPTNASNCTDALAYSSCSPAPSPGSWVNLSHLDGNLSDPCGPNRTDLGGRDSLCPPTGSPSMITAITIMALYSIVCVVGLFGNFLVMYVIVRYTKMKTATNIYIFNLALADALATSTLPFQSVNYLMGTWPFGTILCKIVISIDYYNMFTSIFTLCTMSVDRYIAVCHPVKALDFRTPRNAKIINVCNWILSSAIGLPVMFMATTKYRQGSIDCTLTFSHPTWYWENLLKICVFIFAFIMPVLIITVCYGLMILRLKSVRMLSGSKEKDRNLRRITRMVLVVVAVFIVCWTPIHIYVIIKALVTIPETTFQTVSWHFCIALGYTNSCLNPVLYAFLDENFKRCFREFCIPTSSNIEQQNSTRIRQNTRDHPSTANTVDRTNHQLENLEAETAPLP

Kappa-type opioid receptor, sequence (P41145 whole entry): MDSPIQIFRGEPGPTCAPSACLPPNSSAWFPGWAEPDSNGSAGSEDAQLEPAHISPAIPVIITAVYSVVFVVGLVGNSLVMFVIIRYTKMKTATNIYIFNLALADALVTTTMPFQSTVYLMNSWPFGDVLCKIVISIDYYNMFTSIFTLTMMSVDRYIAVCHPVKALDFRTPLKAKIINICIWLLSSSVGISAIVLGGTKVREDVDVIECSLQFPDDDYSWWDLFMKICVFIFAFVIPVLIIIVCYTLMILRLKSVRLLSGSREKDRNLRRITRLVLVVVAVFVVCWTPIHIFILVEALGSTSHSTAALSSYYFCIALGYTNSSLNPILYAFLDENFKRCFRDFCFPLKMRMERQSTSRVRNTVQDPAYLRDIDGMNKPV
Delta-type opioid receptor, sequence (P41143 whole entry): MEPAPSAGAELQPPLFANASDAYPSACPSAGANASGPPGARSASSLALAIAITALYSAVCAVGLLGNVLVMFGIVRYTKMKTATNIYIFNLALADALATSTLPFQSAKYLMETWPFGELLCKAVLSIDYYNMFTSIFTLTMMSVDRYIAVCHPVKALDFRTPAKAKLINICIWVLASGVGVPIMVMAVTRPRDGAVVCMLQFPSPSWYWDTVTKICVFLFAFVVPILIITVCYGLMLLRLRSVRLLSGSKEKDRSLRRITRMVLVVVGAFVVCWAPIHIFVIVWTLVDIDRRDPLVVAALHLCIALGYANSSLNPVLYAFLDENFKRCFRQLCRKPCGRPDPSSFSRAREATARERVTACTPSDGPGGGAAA

CN1CC[C@]2(c3cccc(O)c3)C[C@H](O)C[C@@H]1C2
Ki [1]: 1.23 µM | Ki [2]: 1.96 µM | Ki (Mu-type opioid receptor): 0.022 µM
